According to US20150105252A1, “SUBSTITUTED PYRAZOLES AS HERBICIDES” (E I DU PONT DE NEMOURS AND COMPANY, priority 2013, published 2015):

How the values were obtained:
oilseed rape = experiment: Test C preemergence; format: in vivo, Brassica napus
How it was run: (§1)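 Seeds sown in loam–sand blend and treated preemergence with test chemicals in non-phytotoxic solvent with surfactant; postemergence plants in peat-based medium, treated at 2–18 cm (1- to 4-leaf stage). Greenhouse 13 to 15 days, then visual rating versus controls, 0 (no effect) to 100 (complete control).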

pigweed [1] = experiment: Test A postemergence; format: in vivo, Amaranthus retroflexus; settings: Postemergence
How it was run: (§2)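 Scoring was visual, on a scale where 100 means complete control and 0 means no effect, comparing treated with untreated plants around 10 days post-application. Compounds in surfactant-containing non-phytotoxic solvent were sprayed onto soil preemergence or onto one- to two-leaf seedlings (2–10 cm) postemergence.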

foxtail, giant = experiment: Test C preemergence; format: in vivo, Setaria faberii
How it was run: as §1

ryegrass, Italian = experiment: Test C preemergence; format: in vivo, Lolium multiflorum
How it was run: as §1

wheat [2] = experiment: Test C postemergence; format: in vivo, Triticum aestivum; settings: postemergence; for Plant response rating, Wheat: 250 g ai/ha, scale 0 to 100 (0 no effect, 100 complete control); for Wheat plant response rating: scale 0 to 100
How it was run: as §1

corn = experiment: Test C postemergence; format: in vivo, Zea mays; settings: for Plant response rating (scale of 0 to 100 where 0 is no effect and 100 is complete control), Corn: Postemergence, 31 g ai/ha, visually evaluated after 13 to 15 days; for Corn plant response rating / Plant response rating, Corn: postemergence; for Corn plant response rating: 62 g ai/ha, scale 0 to 100
How it was run: as §1

pigweed [3] = experiment: Test A preemergence; format: in vivo, Amaranthus retroflexus; settings: preemergence; for Pigweed plant response rating (0 to 100 scale): 125 g ai/ha, visual injury approx. 10 days after treatment
How it was run: as §2

barnyardgrass = experiment: Test B flood; format: in vivo, Echinochloa crus-galli; settings: 250 g ai/ha, visual rating on 0 to 100 scale (0 no effect, 100 complete control), 13 to 15 days
How it was run: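 Paddy-water application: seedlings at 2-leaf stage, flood depth 3 cm maintained for the test duration. Evaluation after 13–15 days in the greenhouse by eye relative to controls; 0–100 scale.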

morningglory = experiment: Test A postemergence; format: in vivo, Ipomoea spp.; settings: Postemergence
How it was run: as §2

blackgrass = experiment: Test C preemergence; format: in vivo, Alopecurus myosuroides; settings: preemergence; for Plant response rating, Blackgrass: 125 g ai/ha, scale 0 to 100, 0 = no effect, 100 = complete control
How it was run: as §1

galium = experiment: Test C postemergence; format: in vivo, Galium aparine; settings: for Plant response rating (scale of 0 to 100 where 0 is no effect and 100 is complete control), Galium: Postemergence, 31 g ai/ha, visually evaluated after 13 to 15 days; for Galium plant response rating / Plant response rating, Galium: postemergence; for Galium plant response rating: 62 g ai/ha, scale 0 to 100
How it was run: as §1

crabgrass, large = experiment: Test C preemergence; format: in vivo, Digitaria sanguinalis
How it was run: as §1

wheat [4] = experiment: Test A postemergence; format: in vivo, Triticum aestivum; settings: Postemergence
How it was run: as §2

[5] = preemergence, 31 g ai/ha, visual rating, scale 0 to 100 (0 no effect, 100 complete control), 13 to 15 days
[6] = preemergence, 62 g ai/ha, scale 0 to 100 (0 no effect, 100 complete control), 13 to 15 days
[7] = preemergence, 125 g ai/ha, 13 to 15 days, scale 0 to 100, 0 = no effect, 100 = complete control
[8] = preemergence, 250 g ai/ha, scale 0 to 100, 0 is no effect, 100 is complete control
[9] = 125 g ai/ha, 0 to 100 scale, 0 no effect, 100 complete control
[10] = 500 g ai/ha, 0 to 100 scale (0 no effect, 100 complete control)
[11] = 250 g ai/ha, scale 0 to 100 (0 no effect, 100 complete control)
[12] = 125 g ai/ha, scale 0 to 100, 0 no effect, 100 complete control
[13] = 31 g ai/ha, visual rating, scale 0 to 100 (0 no effect, 100 complete control), 13 to 15 days
[14] = 62 g ai/ha, scale 0 to 100 (0 no effect, 100 complete control), 13 to 15 days
[15] = 250 g ai/ha, scale 0 to 100, 0 is no effect, 100 is complete control
[16] = Preemergence, rate head not shown (block before 16 g ai/ha), scale 0 to 100

SMILES | Oilseed Rape plant response rating (oilseed rape; [6]) | Plant response rating, Oilseed Rape (oilseed rape; [7]) | Oilseed Rape plant response rating (oilseed rape; [8]) | Pigweed plant response rating (pigweed [1]; [9]) | Pigweed plant response rating (pigweed [1]; [10]) | Foxtail, Giant plant response rating (foxtail, giant; [6]) | Plant response rating, Foxtail, Giant (foxtail, giant; [7]) | Foxtail, Giant plant response rating (foxtail, giant; [8]) | Ryegrass, Italian plant response rating (ryegrass, Italian; [6]) | Plant response rating, Ryegrass, Italian (ryegrass, Italian; [7]) | Ryegrass, Italian plant response rating (ryegrass, Italian; [8]) | Plant response rating, Wheat (wheat [2]) | Wheat plant response rating (wheat [2]) | Plant response rating (scale of 0 to 100 where 0 is no effect and 100 is complete control), Corn (corn) | Corn plant response rating (corn) | Plant response rating, Corn (corn; [11]) | Plant response rating, Corn (corn; [12]) | Pigweed plant response rating (0 to 100 scale) (pigweed [3]) | Plant response rating, Barnyardgrass (barnyardgrass) | Morningglory plant response rating (morningglory; [9]) | also measured
CCCc1cc(C(=O)NC2CC2)nn1Cc1cc(C(F)(F)F)nn1C [Compound 202] | 100 | 100 | 100 | 100 | 100 | 100 | 100 | 100 | 50 | 90 | 90 | 5 | 5 | 5 | 10 | 25 | 15 | 100 | 30 | 70 | Oilseed Rape plant response rating (oilseed rape; [5]): 100; Foxtail, Giant plant response rating (foxtail, giant; [5]): 100; Ryegrass, Italian plant response rating (ryegrass, Italian; [5]): 5; Pigweed plant response rating (pigweed [3]; 500 g ai/ha, visual injury after approx. 10 days, 0 to 100 scale (0 no effect, 100 complete control)): 100; Morningglory plant response rating (morningglory; [10]): 90; Blackgrass plant response rating (blackgrass; [13]): 10; Blackgrass plant response rating (blackgrass; [14]): 85; Plant response rating, Blackgrass (blackgrass; 13 to 15 days): 90; Blackgrass plant response rating (blackgrass; [15]): 90; Plant response rating (scale of 0 to 100 where 0 is no effect and 100 is complete control), Galium (galium): 65; Galium plant response rating (galium): 85; Plant response rating, Galium (galium; [11]): 95; Plant response rating, Galium (galium; [12]): 90; Crabgrass, Large plant response rating (crabgrass, large; [5]): 100; Crabgrass, Large plant response rating (crabgrass, large; [6]): 100; Plant response rating, Crabgrass, Large (crabgrass, large; [7]): 100; Crabgrass, Large plant response rating (crabgrass, large; [8]): 100; Wheat plant response rating (wheat [4]; [9]): 60; Wheat plant response rating (wheat [4]; [10]): 80
CCc1cc(C(=O)NCC(F)(F)F)nn1Cc1ccnc(SC(F)(F)F)c1 [Compound 214] | 95 | 95 | 95 | 100 | 100 | 98 | 100 | 100 | 30 | 70 | 80 | 10 | 5 | 0 | 5 | 10 | 5 | 100 | 50 | 80 | Oilseed Rape plant response rating (oilseed rape; [5]): 80; Foxtail, Giant plant response rating (foxtail, giant; [5]): 90; Ryegrass, Italian plant response rating (ryegrass, Italian; [5]): 5; Morningglory plant response rating (morningglory; [10]): 100; Blackgrass plant response rating (blackgrass; [13]): 85; Blackgrass plant response rating (blackgrass; [14]): 40; Plant response rating, Blackgrass (blackgrass; 13 to 15 days): 90; Blackgrass plant response rating (blackgrass; [15]): 90; Plant response rating (scale of 0 to 100 where 0 is no effect and 100 is complete control), Galium (galium): 75; Galium plant response rating (galium): 70; Plant response rating, Galium (galium; [11]): 90; Plant response rating, Galium (galium; [12]): 60; Crabgrass, Large plant response rating (crabgrass, large; [5]): 100; Crabgrass, Large plant response rating (crabgrass, large; [6]): 100; Plant response rating, Crabgrass, Large (crabgrass, large; [7]): 100; Crabgrass, Large plant response rating (crabgrass, large; [8]): 100; Wheat plant response rating (wheat [4]; [9]): 80; Wheat plant response rating (wheat [4]; [10]): 90
CCc1cc(C(=O)NC2CC2)nn1Cc1ccnc(Br)c1 [Compound 220] | 30 | 85 | 95 | 90 | 100 | 75 | 100 | 100 | 0 | 5 | 5 | 5 | 0 | 5 | 5 | 10 | 5 | 100 | 0 | 50 | Plant response rating, Oilseed Rape (oilseed rape; [16]): 80; Plant response rating, Foxtail, Giant (foxtail, giant; [16]): 10; Plant response rating, Ryegrass, Italian (ryegrass, Italian; [16]): 0; Morningglory plant response rating (morningglory; [10]): 100; Blackgrass plant response rating (blackgrass; [13]): 0; Blackgrass plant response rating (blackgrass; [14]): 0; Plant response rating, Blackgrass (blackgrass; 13 to 15 days): 40; Blackgrass plant response rating (blackgrass; [15]): 70; Plant response rating (scale of 0 to 100 where 0 is no effect and 100 is complete control), Galium (galium): 50; Galium plant response rating (galium): 40; Plant response rating, Galium (galium; [11]): 80; Plant response rating, Galium (galium; [12]): 60; Plant response rating, Crabgrass, Large (crabgrass, large; [16]): 95; Crabgrass, Large plant response rating (crabgrass, large; [6]): 100; Plant response rating, Crabgrass, Large (crabgrass, large; [7]): 100; Crabgrass, Large plant response rating (crabgrass, large; [8]): 100; Wheat plant response rating (wheat [4]; [9]): 0; Wheat plant response rating (wheat [4]; [10]): 90
CCc1cc(C(=O)NCC(F)(F)F)nn1Cc1ccnc(Br)c1 [Compound 224] | 90 | 95 | 95 | 100 | 100 | 100 | 100 | 100 | 60 | 50 | 30 | 5 | 0 | 5 | 5 | 10 | 10 | 100 | 20 | 30 | Plant response rating, Oilseed Rape (oilseed rape; [16]): 80; Plant response rating, Foxtail, Giant (foxtail, giant; [16]): 95; Plant response rating, Ryegrass, Italian (ryegrass, Italian; [16]): 10; Morningglory plant response rating (morningglory; [10]): 100; Blackgrass plant response rating (blackgrass; [13]): 80; Blackgrass plant response rating (blackgrass; [14]): 100; Plant response rating, Blackgrass (blackgrass; 13 to 15 days): 80; Blackgrass plant response rating (blackgrass; [15]): 90; Plant response rating (scale of 0 to 100 where 0 is no effect and 100 is complete control), Galium (galium): 50; Galium plant response rating (galium): 55; Plant response rating, Galium (galium; [11]): 90; Plant response rating, Galium (galium; [12]): 40; Plant response rating, Crabgrass, Large (crabgrass, large; [16]): 100; Crabgrass, Large plant response rating (crabgrass, large; [6]): 100; Plant response rating, Crabgrass, Large (crabgrass, large; [7]): 100; Crabgrass, Large plant response rating (crabgrass, large; [8]): 100; Wheat plant response rating (wheat [4]; [9]): 30; Wheat plant response rating (wheat [4]; [10]): 90
